Measured values published in ChEMBL document CHEMBL3886685, “Nitrogen-containing bicyclic aromatic heterocyclic compound” (2016).
pIC50: −log10 of the molar value.

target: Cathepsin S (Homo sapiens, UniProt P25774); experiment: Inhibition Assay: 5 μL of a human cathepsin S enzyme (R&D1183-CY-010) was added to a 96-well plate so as to be 20 ng/well. Next, 10-fold dilution of the test compound (a 10 mM DMSO solution) was serially performed with a buffer solution for assay (a solution of 50 mM sodium methoxide, 250 mM sodium chloride and 5 mM dithiothreitol (DTT), adjusted to pH=4.5 with 1 N hydrochloric acid) six times such that the final concentration becomes 0.1 nM to 10 μM then, 20 μL of each of the solutions was added to the wells (the final DMSO concentration was 0.1%), and 25 μL of synthetic substrate VVR-AMC (3211-V manufactured by PEPTIDE […], INC.) was added thereto such that the final concentration becomes 40 μM, thereby starting a enzyme reaction. A fluorescence intensity (an excitation wavelength: 380 nm and a fluorescent wavelength: 460 nm) was measured at 37° C. for 10 minutes immediately after the start of the reaction using a fluorescence spectrophotometer (SPECTRA MAX GEMINI, manu
Sequence (P25774 whole entry): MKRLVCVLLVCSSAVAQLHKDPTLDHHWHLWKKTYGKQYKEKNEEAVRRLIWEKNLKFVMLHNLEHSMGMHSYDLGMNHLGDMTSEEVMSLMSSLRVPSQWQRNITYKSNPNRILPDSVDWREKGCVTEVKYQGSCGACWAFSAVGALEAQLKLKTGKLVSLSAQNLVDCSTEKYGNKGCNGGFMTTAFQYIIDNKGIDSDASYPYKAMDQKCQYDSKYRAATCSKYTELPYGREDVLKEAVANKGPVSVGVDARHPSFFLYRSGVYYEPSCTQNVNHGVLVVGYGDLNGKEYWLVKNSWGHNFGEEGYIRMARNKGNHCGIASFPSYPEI

In order of rising pIC50:
1. Cn1cnc2c(-c3ccc(OCC(=O)N4CCNCC4)c(C(F)(F)F)c3)nc(C#N)nc21  8.05
2. N#Cc1nc(-c2ccc(OCCC3CCN(C(CF)CF)CC3)c(C#N)c2)c2ccn(CC3CCOC3)c2n1 (stereo not drawn)  8.05
3. CN1CCC[C@H]1C(=O)N1CCC(CCOc2ccc(-c3nc(C#N)nc4c3ccn4CC3CCOC3)cc2C#N)CC1 (stereo partly drawn)  8.11
4. Cn1cnc2c(-c3ccc(OCCC4CCN(C(=O)CO)CC4)c(C(F)(F)F)c3)nc(C#N)nc21  8.21
5. CN1CCC[C@H]1C(=O)N1CCC(CCOc2ncc(-c3nc(C#N)nc4c3ccn4C)cc2C(F)(F)F)CC1  8.32
6. CN1CCC[C@H]1C(=O)N1CCC(CCOc2ccc(-c3nc(C#N)nc4c3ccn4CC3CCOC3)cc2C(F)(F)F)CC1 (stereo partly drawn)  8.33
7. CN(C)C(=O)CN1CCCC(COc2ccc(-c3nc(C#N)nc4c3ccn4C)cc2C(F)(F)F)C1 (stereo not drawn)  8.40
8. CCN1CCC(CCOc2ccc(-c3nc(C#N)nc4c3ccn4CC3CCOC3)cc2C(F)(F)F)CC1 (stereo not drawn)  8.41
9. CCN1CCC(C)(COc2ccc(-c3nc(C#N)nc4c3ccn4C)cc2C(F)(F)F)CC1  8.42
10. CCN1CCC(CCOc2ccc(-c3nc(C#N)nc4c3ccn4CC)cc2C(F)(F)F)CC1  8.43
11. Cn1ccc2c(-c3ccc(OCC4(C)CCNCC4)c(C(F)(F)F)c3)nc(C#N)nc21  8.44
12. Cn1ccc2c(-c3ccc(OCCC4CC5CCC(C4)N5)c(C(F)(F)F)c3)nc(C#N)nc21 (stereo not drawn)  8.44
13. CN1CCC[C@H]1C(=O)N1CCCC(COc2ccc(-c3nc(C#N)nc4c3ccn4C)cc2C(F)(F)F)C1 (stereo partly drawn)  8.44
14. CN1CCC[C@H]1C(=O)N1CCC(CCOc2ccc(-c3nc(C#N)nc4c3ncn4C)cc2C(F)(F)F)CC1  8.46
15. N#Cc1nc(-c2cnc(OCCC3CCNCC3)c(C(F)(F)F)c2)c2ccn(CC3CCOCC3)c2n1  8.46
16. N#Cc1nc(-c2cnc(OCCC3CCNCC3)c(C(F)(F)F)c2)c2ccn(CC3CCOC3)c2n1 (stereo not drawn)  8.47
17. Cn1c(C(F)(F)F)nc2c(-c3cnc(OCCC4CCNCC4)c(C(F)(F)F)c3)nc(C#N)nc21  8.48
18. N#Cc1nc(-c2ccc(OCCC3CCNCC3)c(C#N)c2)c2ccn(CC3CCOC3)c2n1 (stereo not drawn)  8.48
19. N#Cc1nc(-c2ccc(OCCC3CCN(CCO)CC3)c(C(F)(F)F)c2)c2ccn(CC3CCCO3)c2n1 (stereo not drawn)  8.49
20. N#Cc1nc(-c2ccc(OCCC3CCN(CCO)CC3)c(C(F)(F)F)c2)c2ccn(CC3CCOC3)c2n1 (stereo not drawn)  8.51
21. CN1CCC[C@H]1C(=O)N1CCC(CCOc2ncc(-c3nc(C#N)nc4c3ncn4C)cc2C(F)(F)F)CC1  8.51
22. CCN1CCCC(COc2ccc(-c3nc(C#N)nc4c3ccn4C)cc2C(F)(F)F)C1 (stereo not drawn)  8.52
23. CCN1CCC(CCOc2ccc(-c3nc(C#N)nc4c3ccn4C3COC3)cc2C(F)(F)F)CC1  8.54
24. CCOc1ccc(-c2nc(C#N)nc3c2ccn3CC(=O)NC2CCN(C)CC2)cc1C(F)(F)F  8.54
25. CN(C)C(=O)CN1CCC(CCOc2ccc(-c3nc(C#N)nc4c3ccn4CC3CCOC3)cc2C(F)(F)F)CC1 (stereo not drawn)  8.54
26. CCN1CCC(COc2ccc(-c3nc(C#N)nc4c3ccn4CC3CCOC3)cc2C(F)(F)F)CC1 (stereo not drawn)  8.55
27. CN1CCC(C(=O)N2CCC(CCOc3ccc(-c4nc(C#N)nc5c4ncn5C)cc3C(F)(F)F)CC2)CC1  8.57
28. Cn1ccc2c(-c3cnc(OCCC4CCCNC4)c(C(F)(F)F)c3)nc(C#N)nc21 (stereo not drawn)  8.57
29. CCN1CCC(CCOc2ccc(-c3nc(C#N)nc4c3ccn4CC3CCOC3)cc2C#N)CC1 (stereo not drawn)  8.57
30. CCN1CCC(CCOc2ncc(-c3nc(C#N)nc4c3ccn4CC3CCOC3)cc2C(F)(F)F)CC1 (stereo not drawn)  8.59
31. N#Cc1nc(-c2ccc(OCCC3CCNCC3)c(C(F)(F)F)c2)c2ccn(CC3CCCO3)c2n1 (stereo not drawn)  8.59
32. N#Cc1nc(-c2ccc(OCCC3CCNCC3)c(C(F)(F)F)c2)c2ccn(C3CCOCC3)c2n1  8.59
33. N#Cc1nc(-c2ccc(OCCC3CCOCC3)c(C(F)(F)F)c2)c2ccn(CC(=O)N3CCC(CN4CCCC4)CC3)c2n1  8.60
34. Cn1ccc2c(-c3cnc(OCCC4CCNCC4)c(C(F)(F)F)c3)nc(C#N)nc21  8.60
35. CN1CCC[C@@H]1C(=O)N1CC[C@@H](OCCOc2ncc(-c3nc(C#N)nc4c3ccn4C)cc2C(F)(F)F)C1  8.62
36. Cn1cnc2c(-c3ccc(OCCC4CCN(CC(=O)N5CCC(F)(F)C5)CC4)c(C(F)(F)F)c3)nc(C#N)nc21  8.62
37. CCN1CCC(CCOc2ncc(-c3nc(C#N)nc4c3ccn4CC(=O)N3CCOCC3)cc2C(F)(F)F)CC1  8.62
38. CCN1CCC(CCOc2ccc(-c3nc(C#N)nc4c3ccn4CCO)cc2C(F)(F)F)CC1  8.64
39. CN1CCC[C@H]1C(=O)N1CCC(CCOc2ccc(-c3nc(C#N)nc4c3ccn4C)cc2C(F)(F)F)C1 (stereo partly drawn)  8.64
40. CN1CCC(C(=O)N2CCC(CCOc3ccc(-c4nc(C#N)nc5c4ncn5C)cc3C(F)(F)F)CC2)C1 (stereo not drawn)  8.64
41. Cc1nnc(CN2CCC(CCOc3ccc(-c4nc(C#N)nc5c4ncn5C)cc3C(F)(F)F)CC2)o1  8.64
42. CCN1CCC(CCOc2ccc(-c3nc(C#N)nc4c3ncn4CC3CCOC3)cc2C(F)(F)F)CC1 (stereo not drawn)  8.66
43. CN1CCC[C@H]1C(=O)N1CCC(COc2ccc(-c3nc(C#N)nc4c3ccn4CC3CCOC3)cc2C(F)(F)F)CC1 (stereo partly drawn)  8.66
44. CN(C)C(=O)CN1CCC(CCOc2ncc(-c3nc(C#N)nc4c3ccn4C)cc2C(F)(F)F)CC1  8.66
45. CN1CCC(N(C)C(=O)Cn2ccc3c(-c4ccc(OCCC5CCOCC5)c(C(F)(F)F)c4)nc(C#N)nc32)C1 (stereo not drawn)  8.66
46. Cn1ccc2c(-c3cnc(OCC4CCN(C(=O)C5CCN(CC(C)(C)O)CC5)CC4)c(C(F)(F)F)c3)nc(C#N)nc21  8.68
47. CCN1CCC(CCOc2ccc(-c3nc(C#N)nc4c3ccn4C)cc2C(F)(F)F)C1 (stereo not drawn)  8.68
48. CN1CCC[C@H]1C(=O)N1CC(COc2ccc(-c3nc(C#N)nc4c3ccn4C)cc2C(F)(F)F)C1  8.68
49. Cn1ccc2c(-c3ccc(OCCOC4CCNCC4)c(C(F)(F)F)c3)nc(C#N)nc21  8.68
50. CCN1CCC(OCCOc2ccc(-c3nc(C#N)nc4c3ccn4C)cc2C(F)(F)F)CC1  8.70
51. CCN1CCC(CCOc2ccc(-c3nc(C#N)nc4c3ccn4CC(N)=O)cc2C(F)(F)F)CC1  8.70
52. Cn1cnc2c(-c3cnc(OCCC4CCN(C5CCC5)CC4)c(C(F)(F)F)c3)nc(C#N)nc21  8.70
53. CCN1CCC(CCOc2ncc(-c3nc(C#N)nc4c3ccn4C)cc2C(F)(F)F)CC1  8.72
54. N#Cc1nc(-c2ccc(OCCC3CCNCC3)c(C(F)(F)F)c2)c2ccn(CC3CCOC3)c2n1 (stereo not drawn)  8.72
55. N#Cc1nc(-c2ccc(OCC3CCNCC3)c(C(F)(F)F)c2)c2ccn(CC3CCOC3)c2n1 (stereo not drawn)  8.72
56. CN(C)C(=O)CN1CCC(CCOc2ccc(-c3nc(C#N)nc4c3ccn4CCO)cc2C(F)(F)F)CC1  8.72
57. Cn1cnc2c(-c3ccc(OCCC4CCN(CC(=O)N5CCCC5)CC4)c(C(F)(F)F)c3)nc(C#N)nc21  8.80
58. CN1CCC[C@H]1C(=O)N1CCC(CCOc2ncc(-c3nc(C#N)nc4c3ncn4CC3CCOC3)cc2C(F)(F)F)CC1 (stereo partly drawn)  8.85
59. Cn1cnc2c(-c3cnc(OCCC4CCNCC4)c(C(F)(F)F)c3)nc(C#N)nc21  8.85
60. Cn1ccc2c(-c3ccc(OCCC4CCNC4)c(C(F)(F)F)c3)nc(C#N)nc21 (stereo not drawn)  8.89
61. CCN1CCC(CCOc2ccc(-c3nc(C#N)nc4c3ncn4C)cc2C(F)(F)F)CC1  8.92
62. CN1CCC[C@@H]1C(=O)N1CCC(CCOc2ncc(-c3nc(C#N)nc4c3ncn4C)cc2C(F)(F)F)CC1  9.00
63. CCN1CCC(CCOc2ncc(-c3nc(C#N)nc4c3ncn4C)cc2C(F)(F)F)CC1  9.00
